{
  "source": "patent US12421210B2",
  "about": "“Fused bicyclic heterocycles as therapeutic agents” (NEW YORK UNIVERSITY, priority 2018, dated 2025)",
  "data": [
    {"biological_target": "human NAMPT enzyme (His-hNAMPT) (Homo sapiens (Human), UniProt P43490)", "sequence (P43490 whole entry)": "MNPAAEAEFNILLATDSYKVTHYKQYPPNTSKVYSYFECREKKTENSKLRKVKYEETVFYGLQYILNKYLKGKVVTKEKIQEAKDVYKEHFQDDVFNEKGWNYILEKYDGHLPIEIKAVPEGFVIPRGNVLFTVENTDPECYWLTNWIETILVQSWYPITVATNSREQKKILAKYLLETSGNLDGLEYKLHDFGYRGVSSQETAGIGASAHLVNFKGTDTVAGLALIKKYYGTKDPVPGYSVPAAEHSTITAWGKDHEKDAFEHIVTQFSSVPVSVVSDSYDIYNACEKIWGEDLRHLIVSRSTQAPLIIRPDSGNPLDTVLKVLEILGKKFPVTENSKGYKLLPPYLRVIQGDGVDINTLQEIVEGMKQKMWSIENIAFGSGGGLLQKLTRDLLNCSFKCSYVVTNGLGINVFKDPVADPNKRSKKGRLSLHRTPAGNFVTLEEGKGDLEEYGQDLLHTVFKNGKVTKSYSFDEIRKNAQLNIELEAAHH", "assay": "NAMPT enzymatic inhibition assay (fluorescence, NADH product)", "format": "biochemical", "conditions": "[BPS]; read-out: NAMPT IC50 (μM) [BPS]", "units": {"IC50": "µM"}, "values": [
      {"molecule": "CC(C)(C)OC(=O)N1C[C@H]2C[C@@H](CCNC(=O)/C=C/c3cccnc3)C[C@H]2C1", "note": "[Example 274, (3aR,5r,6aS)-tert-butyl 5-(2-((E)-3-(pyridin-3 yl)acrylamido)ethyl)hexahydrocyclopenta[c]pyrrole-2(1H)-carboxylate]", "IC50": "0.01 to 0.49"},
      {"molecule": "O=C(NCC[C@@H]1[C@H]2CN(C(=O)N3CCCC3)C[C@@H]12)c1ccc2nccn2c1", "note": "[Example 66, N-(2-((1R,5S,6s)-3-(pyrrolidine-1-carbonyl)-3-azabicyclo[3.1.0]hexan-6-yl)ethyl)imidazo[1,2-a]pyridine-6-carboxamide]", "IC50": "1 to 29"},
      {"molecule": "CC(C)(C)OC(=O)N1C[C@@H]2[C@H](C1)[C@H]2C(O)CNC(=O)/C=C/c1cccnc1", "note": "(stereo partly drawn) [Example 253, (1R,5S,6r)-tert-butyl 6-(1-hydroxy-2-((E)-3-(pyridin-3-yl)acrylamido)ethyl)-3-azabicyclo[3.1.0]hexane-3-carboxylate]", "IC50": "0.01 to 0.49"},
      {"molecule": "CC1(OC(=O)N2C[C@@H]3[C@@H](CCNC(=O)c4cnc5nccn5c4)[C@@H]3C2)COC1", "note": "[Example 43, (1R,5S,6s)-3-methyloxetan-3-yl 6-(2-(imidazo[1,2-a]pyrimidine-6-carboxamido)ethyl)-3-azabicyclo[3.1.0]hexane-3-carboxylate]", "IC50": "0.01 to 0.49"},
      {"molecule": "O=C(NCC[C@@H]1[C@H]2CN(S(=O)(=O)C3CCOCC3)C[C@@H]12)c1ccc2nccn2c1", "note": "[Example 68, N-(2-((1R,5S,6s)-3-((tetrahydro-2H-pyran-4-yl)sulfonyl)-3-azabicyclo[3.1.0]hexan-6-yl)ethyl)imidazo[1,2-a]pyridine-6-carboxamide]", "IC50": "1 to 29"}
    ]},
    {"biological_target": "human NAMPT enzyme (His-hNAMPT) (Homo sapiens (Human), UniProt P43490)", "assay": "NAMPT enzymatic inhibition assay (fluorescence, NADH product)", "format": "biochemical", "conditions": "[HDB]; read-out: NAMPT IC50 (μM) [HDB]", "units": {"IC50": "µM"}, "values": [
      {"molecule": "O=C(NCC[C@@H]1[C@H]2CN(c3nc(Cl)ncc3F)C[C@@H]12)c1cnc2[nH]ncc2c1", "note": "[Example 224, N-(2-((1R,5S,6s)-3-(2-chloro-5-fluoropyrimidin-4-yl)-3-azabicyclo[3.1.0]hexan-6-yl)ethyl)-1H-pyrazolo[3,4-b]pyridine-5-carboxamide]", "IC50": "0.01 to 0.49"},
      {"molecule": "COc1nc(N2C[C@@H]3[C@@H](CCNC(=O)/C=C/c4cccnc4)[C@@H]3C2)ncc1F", "note": "[Example 173, (E)-N-(2-((1R,5S,6s)-3-(5-fluoro-4-methoxypyrimidin-2-yl)-3-azabicyclo[3.1.0]hexan-6-yl)ethyl)-3-(pyridin-3-yl)acrylamide]", "IC50": "0.01 to 0.49"},
      {"molecule": "O=C(/C=C/c1cccnc1)NCC[C@@H]1[C@H]2CN(C(c3ccccc3)c3ccccc3)C[C@@H]12", "note": "[Example 276, (E)-N-(2-((1R,5S,6s)-3-benzhydryl-3-azabicyclo[3.1.0]hexan-6-yl)ethyl)-3-(pyridin-3-yl)acrylamide]", "IC50": "< 0.01"}
    ]}
  ]
}
